US11629201B2, “PSMA-binding agents and uses thereof” (ITM Isotope Technologies Munich SE, priority 2017, dated 2023)

Test system: PC-3 PIP/flu tumor-bearing mice
Assay: Biodistribution studies in PC-3 PIP/flu tumor-bearing mice
Conditions: for Tumor-to-blood / Tumor-to-kidney / Tumor-to-liver: PC-3 PIP tumor

What does the source list for `O=C(O)CCC(NC(=O)NC(CCCCNC(=O)C(Cc1ccc2ccccc2c1)NC(=O)C1CCC(n2cc(CC(NC(=O)CN3CCN(CC(=O)O)CCN(CC(=O)O)CCN(CC(=O)O)CC3)C(=O)NC(CCCCNC(=O)CCCc3ccc(I)cc3)C(=O)O)nn2)CC1)C(=O)O)C(=O)O` (stereo not shown) [^177Lu-PSMA-ALB-01, metal not drawn]?
Tumor-to-blood (1 h p.i.): 0.30 ± 0.06; Tumor-to-kidney (1 h p.i.): 0.46 ± 0.04; Tumor-to-liver (1 h p.i.): 1.56 ± 0.30; Blood (4 h p.i.): 25.6 ± 1.53 % IA/g; Bone (4 h p.i.): 3.01 ± 0.09 % IA/g; Heart (4 h p.i.): 8.71 ± 0.50 % IA/g; Intestines (4 h p.i.): 4.17 ± 0.70 % IA/g; Kidneys (4 h p.i.): 24.6 ± 0.38 % IA/g; Liver (4 h p.i.): 5.92 ± 0.07 % IA/g; Lung (4 h p.i.): 14.1 ± 0.99 % IA/g; Muscle (4 h p.i.): 2.06 ± 0.80 % IA/g; PC-3 PIP Tumor (4 h p.i.): 20.4 ± 0.39 % IA/g; PC-3 flu Tumor (4 h p.i.): 5.03 ± 1.61 % IA/g; Salivary glands (4 h p.i.): 5.20 ± 0.73 % IA/g; Spleen (4 h p.i.): 5.34 ± 0.90 % IA/g; Stomach (4 h p.i.): 3.30 ± 0.05 % IA/g; Tumor-to-blood (4 h p.i.): 0.80 ± 0.03; Tumor-to-kidney (4 h p.i.): 0.83 ± 0.03; Tumor-to-liver (4 h p.i.): 3.45 ± 0.03; Blood (8 h p.i.): 21.0 ± 2.86 % IA/g; Bone (8 h p.i.): 2.54 ± 0.26 % IA/g; Heart (8 h p.i.): 7.16 ± 1.23 % IA/g; Intestines (8 h p.i.): 2.44 ± 0.17 % IA/g; Kidneys (8 h p.i.): 22.6 ± 2.38 % IA/g; Liver (8 h p.i.): 5.31 ± 1.23 % IA/g; Lung (8 h p.i.): 11.6 ± 0.83 % IA/g; Muscle (8 h p.i.): 1.63 ± 0.27 % IA/g; PC-3 PIP Tumor (8 h p.i.): 25.5 ± 2.02 % IA/g; PC-3 flu Tumor (8 h p.i.): 4.01 ± 0.79 % IA/g; Salivary glands (8 h p.i.): 4.45 ± 0.56 % IA/g; Spleen (8 h p.i.): 4.05 ± 0.69 % IA/g; Stomach (8 h p.i.): 2.45 ± 0.43 % IA/g; Tumor-to-blood (8 h p.i.): 1.22 ± 0.08; Tumor-to-kidney (8 h p.i.): 1.13 ± 0.07; Tumor-to-liver (8 h p.i.): 4.97 ± 1.21; Blood (24 h p.i.): 14.2 ± 1.40 % IA/g; Bone (24 h p.i.): 1.58 ± 0.06 % IA/g; Heart (24 h p.i.): 5.93 ± 0.65 % IA/g; Intestines (24 h p.i.): 2.12 ± 0.20 % IA/g; Kidneys (24 h p.i.): 22.7 ± 2.18 % IA/g; Liver (24 h p.i.): 2.92 ± 0.67 % IA/g; Lung (24 h p.i.): 8.62 ± 1.47 % IA/g; Muscle (24 h p.i.): 1.34 ± 0.14 % IA/g; PC-3 PIP Tumor (24 h p.i.): 38.2 ± 2.59 % IA/g; PC-3 flu Tumor (24 h p.i.): 3.95 ± 0.82 % IA/g; Salivary glands (24 h p.i.): 3.38 ± 0.32 % IA/g; Spleen (24 h p.i.): 3.60 ± 0.43 % IA/g; Stomach (24 h p.i.): 1.39 ± 0.07 % IA/g; Tumor-to-blood (24 h p.i.): 2.71 ± 0.39; Tumor-to-kidney (24 h p.i.): 1.69 ± 0.07; Tumor-to-liver (24 h p.i.): 13.5 ± 2.79; Blood (48 h p.i.): 12.0 ± 2.18 % IA/g; Bone (48 h p.i.): 1.64 ± 0.34 % IA/g; Heart (48 h p.i.): 4.42 ± 0.81 % IA/g; Intestines (48 h p.i.): 1.84 ± 0.54 % IA/g; Kidneys (48 h p.i.): 25.2 ± 4.15 % IA/g; Liver (48 h p.i.): 3.03 ± 0.63 % IA/g; Lung (48 h p.i.): 7.67 ± 0.83 % IA/g; Muscle (48 h p.i.): 1.35 ± 0.46 % IA/g; PC-3 PIP Tumor (48 h p.i.): 65.6 ± 1.84 % IA/g; PC-3 flu Tumor (48 h p.i.): 4.64 ± 1.84 % IA/g; Salivary glands (48 h p.i.): 3.96 ± 0.98 % IA/g; Spleen (48 h p.i.): 4.62 ± 1.12 % IA/g; Stomach (48 h p.i.): 1.49 ± 0.47 % IA/g; Tumor-to-blood (48 h p.i.): 5.54 ± 0.76; Tumor-to-kidney (48 h p.i.): 2.64 ± 0.40; Tumor-to-liver (48 h p.i.): 22.2 ± 4.11; Blood (96 h p.i.): 6.68 ± 0.85 % IA/g; Bone (96 h p.i.): 1.07 ± 0.22 % IA/g; Heart (96 h p.i.): 2.70 ± 0.37 % IA/g; Intestines (96 h p.i.): 1.05 ± 0.17 % IA/g; Kidneys (96 h p.i.): 13.0 ± 1.30 % IA/g; Liver (96 h p.i.): 1.88 ± 0.36 % IA/g; Lung (96 h p.i.): 5.07 ± 0.66 % IA/g; Muscle (96 h p.i.): 0.82 ± 0.12 % IA/g; PC-3 PIP Tumor (96 h p.i.): 62.3 ± 3.56 % IA/g; PC-3 flu Tumor (96 h p.i.): 2.76 ± 0.23 % IA/g; Salivary glands (96 h p.i.): 2.22 ± 0.38 % IA/g; Spleen (96 h p.i.): 3.12 ± .015 % IA/g; Stomach (96 h p.i.): 0.81 ± 0.04 % IA/g; Tumor-to-blood (96 h p.i.): 9.39 ± 0.65; Tumor-to-kidney (96 h p.i.): 4.80 ± 0.20; Tumor-to-liver (96 h p.i.): 33.7 ± 4.33; Blood (144 h p.i.): 5.78 ± 0.90 % IA/g; Bone (144 h p.i.): 0.99 ± 0.20 % IA/g; Heart (144 h p.i.): 2.23 ± 0.29 % IA/g; Intestines (144 h p.i.): 1.07 ± 0.13 % IA/g; Kidneys (144 h p.i.): 10.2 ± 3.41 % IA/g; Liver (144 h p.i.): 1.56 ± 0.16 % IA/g; Lung (144 h p.i.): 4.90 ± 0.58 % IA/g; Muscle (144 h p.i.): 0.66 ± 0.15 % IA/g; PC-3 PIP Tumor (144 h p.i.): 78.4 ± 8.57 % IA/g; PC-3 flu Tumor (144 h p.i.): 2.82 ± 0.24 % IA/g; Salivary glands (144 h p.i.): 1.68 ± 0.53 % IA/g; Spleen (144 h p.i.): 4.32 ± 0.57 % IA/g; Stomach (144 h p.i.): 0.84 ± 0.13 % IA/g; Tumor-to-blood (144 h p.i.): 13.8 ± 2.38; Tumor-to-kidney (144 h p.i.): 8.05 ± 1.77; Tumor-to-liver (144 h p.i.): 50.5 ± 6.28; Blood (192 h p.i.): 5.21 ± 1.37 % IA/g; Bone (192 h p.i.): 0.86 ± 0.17 % IA/g; Heart (192 h p.i.): 2.12 ± 0.68 % IA/g; Intestines (192 h p.i.): 1.02 ± 0.25 % IA/g; Kidneys (192 h p.i.): 7.56 ± 1.44 % IA/g; Liver (192 h p.i.): 1.51 ± 0.37 % IA/g; Lung (192 h p.i.): 4.12 ± 0.96 % IA/g; Muscle (192 h p.i.): 0.64 ± 0.13 % IA/g; PC-3 PIP Tumor (192 h p.i.): 75.6 ± 22.0 % IA/g; PC-3 flu Tumor (192 h p.i.): 2.73 ± 0.84 % IA/g; Salivary glands (192 h p.i.): 1.78 ± 0.34 % IA/g; Spleen (192 h p.i.): 4.09 ± 1.12 % IA/g; Stomach (192 h p.i.): 0.73 ± 0.12 % IA/g; Tumor-to-blood (192 h p.i.): 14.5 ± 1.84; Tumor-to-kidney (192 h p.i.): 9.87 ± 1.05; Tumor-to-liver (192 h p.i.): 50.2 ± 7.38
